From publication PMC11968843, “Sulphostin-inspired N-phosphonopiperidones as selective covalent DPP8 and DPP9 inhibitors” (Nature Communications, 2025)
Where “and” joins values, the source holds several entries; their conditions need not be identical. Identical values can stand only once. Entries after “also recorded” stand apart in the source; their conditions may differ.

Tests used:
[1] = target: T1, HEK293 cell lysates (proteome-wide targets of probe 9) (Homo sapiens, UniProt P30041); experiment: Competitive ABPP / direct target identification with alkyne probe 9 in HEK293 cell lysates; type: binding, H. sapiens; conditions: protein PRDX6
T1 construct: endogenous in cells; host or cells: HEK293 cell lysate

[2] = target: T2, HEK293 cell lysates (proteome-wide targets of probe 9) (Homo sapiens, UniProt P07737); experiment: as above; type: binding, H. sapiens; conditions: protein PFN1
T2 construct: endogenous in cells; host or cells: HEK293 cell lysate

[3] = target: T3, HEK293 cell lysates (proteome-wide targets of probe 9) (Homo sapiens, UniProt O15372); experiment: as above; type: binding, H. sapiens; conditions: protein EIF3H
T3 construct: endogenous in cells; host or cells: HEK293 cell lysate

[4] = target: T4, HEK293 cell lysates (proteome-wide targets of probe 9) (Homo sapiens, UniProt P22234); experiment: as above; type: binding, H. sapiens; conditions: protein PAICS
T4 construct: endogenous in cells; host or cells: HEK293 cell lysate

[5] = target: T5, HEK293 cell lysates (proteome-wide targets of probe 9) (Homo sapiens, UniProt P09211); experiment: as above; type: binding, H. sapiens; conditions: protein GSTP1
T5 construct: endogenous in cells; host or cells: HEK293 cell lysate

[6] = target: T6, HEK293 cell lysates (proteome-wide targets of probe 9) (Homo sapiens, UniProt P55060); experiment: as above; type: binding, H. sapiens; conditions: protein CSE1L
T6 construct: endogenous in cells; host or cells: HEK293 cell lysate

[7] = target: T7, HEK293 cell lysates (proteome-wide targets of probe 9) (Homo sapiens, UniProt P50990); experiment: as above; type: binding, H. sapiens; conditions: protein CCT8
T7 construct: endogenous in cells; host or cells: HEK293 cell lysate

[8] = target: T8, HEK293 cell lysates (proteome-wide targets of probe 9) (Homo sapiens, UniProt P06733); experiment: as above; type: binding, H. sapiens; conditions: protein ENO1
T8 construct: endogenous in cells; host or cells: HEK293 cell lysate

[9] = target: T9, HEK293 cell lysates (proteome-wide targets of probe 9) (Homo sapiens, UniProt P14174); experiment: as above; type: binding, H. sapiens; conditions: protein MIF
T9 construct: endogenous in cells; host or cells: HEK293 cell lysate

[10] = target: T10, HEK293 cell lysates (proteome-wide targets of probe 9) (Homo sapiens, UniProt P00338); experiment: as above; type: binding, H. sapiens; conditions: protein LDHA
T10 construct: endogenous in cells; host or cells: HEK293 cell lysate

[11] = target: T11, HEK293 cell lysates (proteome-wide targets of probe 9) (Homo sapiens, UniProt Q5T749); experiment: as above; type: binding, H. sapiens; conditions: protein KPRP
T11 construct: endogenous in cells; host or cells: HEK293 cell lysate

[12] = target: T12, HEK293 cell lysates (proteome-wide targets of probe 9) (Homo sapiens, UniProt P11498); experiment: as above; type: binding, H. sapiens; conditions: protein PC
T12 construct: endogenous in cells; host or cells: HEK293 cell lysate

[13] = target: T13, HEK293 cell lysates (proteome-wide targets of probe 9) (Homo sapiens, UniProt P08865); experiment: as above; type: binding, H. sapiens; conditions: protein RPSA
T13 construct: endogenous in cells; host or cells: HEK293 cell lysate

[14] = target: T14, HEK293 cell lysates (proteome-wide targets of probe 9) (Homo sapiens, UniProt Q12802); experiment: as above; type: binding, H. sapiens; conditions: protein AKAP13
T14 construct: endogenous in cells; host or cells: HEK293 cell lysate

[15] = target: T15, HEK293 cell lysates (proteome-wide targets of probe 9) (Homo sapiens, UniProt P14923); experiment: as above; type: binding, H. sapiens; conditions: protein JUP
T15 construct: endogenous in cells; host or cells: HEK293 cell lysate

[16] = target: T16, HEK293 cell lysates (proteome-wide targets of probe 9) (Homo sapiens, UniProt P36578); experiment: as above; type: binding, H. sapiens; conditions: protein RPL4
T16 construct: endogenous in cells; host or cells: HEK293 cell lysate

[17] = target: T17, HEK293 cell lysates (proteome-wide targets of probe 9) (Homo sapiens, UniProt P19338); experiment: as above; type: binding, H. sapiens; conditions: protein NCL
T17 construct: endogenous in cells; host or cells: HEK293 cell lysate

[18] = target: T18, HEK293 cell lysates (proteome-wide targets of probe 9) (Homo sapiens, UniProt P25398); experiment: as above; type: binding, H. sapiens; conditions: protein RPS12
T18 construct: endogenous in cells; host or cells: HEK293 cell lysate

[19] = target: T19, HEK293 cell lysates (proteome-wide targets of probe 9) (Homo sapiens, UniProt Q6V1X1); experiment: as above; type: binding, H. sapiens
T19 construct: endogenous in cells; host or cells: HEK293 cell lysate

[20] = target: T20, HEK293 cell lysates (proteome-wide targets of probe 9) (Homo sapiens, UniProt O00295); experiment: as above; type: binding, H. sapiens; conditions: protein TULP2
T20 construct: endogenous in cells; host or cells: HEK293 cell lysate

[21] = test system: HEK293 cell lysates (proteome-wide targets of probe 9); experiment: as above; type: binding, H. sapiens
[22] = target: T21, HEK293 cell lysates (proteome-wide targets of probe 9) (Homo sapiens, UniProt P07195); experiment: as above; type: binding, H. sapiens; conditions: protein LDHB
T21 construct: endogenous in cells; host or cells: HEK293 cell lysate

HeLa wild-type cells = experiment: Cell viability assay (MTT), co-treatment with Mitomycin C; type: cell-based
Procedure: HeLa wild-type (HeLa Flp-In T-REx WT, kind gift from Prof. Matthias Hentze) and HeLa DPP9^KO cells (prepared in-house) were cultured in DMEM (ThermoFisher, USA) supplemented with 10% FBS (PAN Biotech, Germany), 2 mM L-Glutamin (ThermoFisher, USA) and 1% Penicillin/Streptomycin (100 U mL^−1 Penicillin and 100 µg mL^−1 Streptomycin, ThermoFisher, USA). Cells were seeded in 96-well flat-bottom cell culture plates (Greiner, Germany) at a concentration of 5 × 10^3 cells per well (37 °C and 5% CO2). The indicated concentration of Mitomycin C (MMC, Merck) was added to the cells 24 h after seeding, together with 10 µM of the indicated inhibitor. The inhibitors were refreshed every 24 h. Control cells were treated with DMSO.
Cell viability was measured 72 hours after the MMC treatment. For this, the medium was removed and replaced with phenol-red free DMEM (ThermoFisher, USA) containing 0.5 mg mL^−1 MTT (Sigma Aldrich, USA). Cells were incubated for 30 min at 37 °C, 5% CO2. Subsequently, the medium was removed and replaced by DMSO. The plates were shaken on an orbital shaker for 20 min before measuring the MTT signal on a CARIOstar Plus microplate reader (BMT labtech, Germany). Each experiment was performed three times, each in triplicates.

[23] = protein DPP8 (Dipeptidyl peptidase 8)
[24] = protein HIST1H1C;HIST1H1E;HIST1H1D
[25] = protein group Histone H2A type 1 (HIST1H2AG and others)

C#CCCCP(=O)(OCC)N1CCCC(N)C1=O.O=C(O)C(F)(F)F (mixture of isomers) [Compound 9]
Log2-fold change (9/DMSO) [1]: 0.7412
Log2-fold change (9/DMSO) [2]: 0.6639
Log2-fold change (9/DMSO) [3]: 0.7356
Log2-fold change (9/DMSO) [4]: -0.1992
Log2-fold change (9/DMSO) [5]: 1.848
Log2-fold change (9/DMSO) [6]: 0.5768
Log2-fold change (9/DMSO) [7]: 0.4828
Log2-fold change (9/DMSO) [8]: -0.0902
Log2-fold change (9/DMSO) [9]: 2.233
Log2-fold change (9/DMSO) [10]: -0.2121
Log2-fold change (9/DMSO) [11]: -0.1834
Log2-fold change (9/DMSO) [12]: -0.6769
Log2-fold change (9/DMSO) [13]: 1.5735
Log2-fold change (9/DMSO) [14]: -0.9342
Log2-fold change (9/DMSO) [15]: 0.133
Log2-fold change (9/DMSO) [16]: -0.3595
Log2-fold change (9/DMSO) [17]: 1.258
Log2-fold change (9/DMSO) [18]: -1.46
Initial LFQ intensity of DPP8 (log2-transformed) ([19]; labeled with 9, single replicates): 21.9345 and 21.2153 and 19.9933
Log2-fold change (9/DMSO) [19, 23]: 1.124
Log2-fold change (9/DMSO) [20]: -0.1649
proteins significantly enriched by the alkyne probe ([21]; 10 µM probe, HEK293 lysates): significant enrichment of only two proteins, namely DPP9 and the off-target prolyl endopeptidase (PREP)
Log2-fold change (9/DMSO) ([21]; protein EEF1A1;EEF1A1P5;EEF1A2): 0.04533
Log2-fold change (9/DMSO) ([21]; protein EIF5A;EIF5AL1): 1.278
Log2-fold change (9/DMSO) [21, 24]: 0.83
Log2-fold change (9/DMSO) ([21]; protein HNRNPH1;HNRNPH2): -0.1168
Log2-fold change (9/DMSO) ([21]; protein ID A0A1B0GV53): -4.4932
Log2-fold change (9/DMSO) ([21]; protein NME1;NME2): 0.34
Log2-fold change (9/DMSO) ([21]; protein PABPC1;PABPC3): 0.8323
Log2-fold change (9/DMSO) ([21]; protein PGAM1;PGAM2): 1.799
Log2-fold change (9/DMSO) ([21]; protein TUBB4B;TUBB4A): 1.386
Log2-fold change (9/DMSO) [21, 25]: -1.664
Log2-fold change (9/DMSO) [22]: 0.03494

CCCCCc1ccc(SCCP(=O)(OCC)N2CCC[C@H](N)C2=O)cc1.O=C(O)C(F)(F)F (stereo partly drawn) [Compound 16]
cell viability normalized for each condition seperately to corresponsing [-MMC +inhibitor] control (HeLa wild-type cells; +MMC co-treatment, individual replicate values (Supplementary Figure 11b)): 56.5022% and 55.2183% and 55.934% and 53.6658% and 54.9944% and 49.1952% and 50.7013% and 59.4169% and 66.1488%
95% confidence interval of difference (HeLa wild-type cells; Figure 5d S11a, + Ctrl. [+MMC] vs. compound [+MMC], Tukey's multiple comparisons test): 1,107 to 22,31
95% confidence interval of difference (HeLa wild-type cells; Figure S11b, Ctrl. vs. compound, Uncorrected Fisher's LSD): 1,930 to 15,55
effect on cell viability / sensitivity to MMC (HeLa wild-type cells; HeLa wild-type, 1 µM MMC + 10 µM inhibitor, 72 h): increase in the sensitivity of cells to genotoxic stress; also recorded: clearly increased the sensitivity of cells to MMC
Log2-fold change (16/9) [1]: 0.07848
Log2-fold change (16/9) [2]: -2.001
Log2-fold change (16/9) [3]: -0.06894
Log2-fold change (16/9) [4]: 0.0197
Log2-fold change (16/9) [5]: -1.311
Log2-fold change (16/9) [6]: 0.04384
Log2-fold change (16/9) [7]: -0.5032
Log2-fold change (16/9) [8]: 0.05891
Log2-fold change (16/9) [9]: -0.05345
Log2-fold change (16/9) [10]: 0.1049
Log2-fold change (16/9) [11]: 0.315
Log2-fold change (16/9) [12]: 0.1121
Log2-fold change (16/9) [13]: -2.215
Log2-fold change (16/9) [14]: 0.6936
Log2-fold change (16/9) [15]: -0.03524
Log2-fold change (16/9) [16]: 0.07056
Log2-fold change (16/9) [17]: -1.045
Log2-fold change (16/9) [18]: 0.07588
DPP8 identification after pre-incubation with competitor ([19]; labeled with 9, pre-incubated with competitor): peptides of DPP8 were identified
Log2-fold change (16/9) [19, 23]: -1.618
Log2-fold change (16/9) [20]: 0.6272
competition of labeling by probe 9 ([21]; 50 µM competitor, 10 µM 9, HEK293 lysates): solely DPP9 was competed
Log2-fold change (16/9) ([21]; protein EEF1A1;EEF1A1P5;EEF1A2): -1.204
Log2-fold change (16/9) ([21]; protein EIF5A;EIF5AL1): -2.135
Log2-fold change (16/9) [21, 24]: -0.04142
Log2-fold change (16/9) ([21]; protein HNRNPH1;HNRNPH2): 0.1964
Log2-fold change (16/9) ([21]; protein HSPA1A;HSPA1B): -0.2164
Log2-fold change (16/9) ([21]; protein ID A0A1B0GV53): 0.5692
Log2-fold change (16/9) ([21]; protein NME1;NME2): -0.08451
Log2-fold change (16/9) ([21]; protein PABPC1;PABPC3): -0.421
Log2-fold change (16/9) ([21]; protein PGAM1;PGAM2): -2.097
Log2-fold change (16/9) ([21]; protein RPLP0;RPLP0P6): -0.5558
Log2-fold change (16/9) ([21]; protein TUBB4B;TUBB4A): -2.026
Log2-fold change (16/9) [21, 25]: 0.5881
Log2-fold change (16/9) [22]: 0.1493
